Data: patent publication US20200247897A1, “THERAPEUTIC ANTIBODIES BASED ON MUTATED IGG HEXAMERS” (GENMAB B.V., priority 2017, published 2020)
Like-named read-outs stand apart in the source and are kept apart here.

Tests used:
LS-411N = assay: Drug combination screen (ATPlite, Synergy Score), LS-411N; assay type: cell-based, human
SW480 = assay: Drug combination screen (ATPlite, Synergy Score), SW480; assay type: cell-based, human
SNU-C2B = assay: Drug combination screen (ATPlite, Synergy Score), SNU-C2B
DLD-1 = assay: Drug combination screen (ATPlite, Synergy Score), DLD-1
HCT 116 = assay: Drug combination screen (ATPlite, Synergy Score), HCT 116
[1] = compound in combination with IgG1-hDR5-01-G56T-E430G + IgG1-hDR5-05-E430G, LS-411N, 72 hour ATPlite, 6x6 matrix
[2] = compound in combination with IgG1-hDR5-01-G56T-E430G + IgG1-hDR5-05-E430G, SW480, 72 hour ATPlite, 6x6 matrix
[3] = compound in combination with IgG1-hDR5-01-G56T-E430G + IgG1-hDR5-05-E430G, SNU-C2B, 72 hour ATPlite, 6x6 matrix
[4] = compound in combination with IgG1-hDR5-01-G56T-E430G + IgG1-hDR5-05-E430G, DLD-1, 120 hour ATPlite, 6x6 matrix
[5] = compound in combination with IgG1-hDR5-01-G56T-E430G + IgG1-hDR5-05-E430G, HCT 116, 120 hour ATPlite, 6x6 matrix

| Structure (SMILES) | Synergy Score LS-411N (LS-411N; [1]) | Synergy Score SW480 (SW480; [2]) | Synergy Score SNU-C2B (SNU-C2B; [3]) | Synergy Score DLD-1 (DLD-1; [4]) | Synergy Score HCT-116 (HCT 116; [5]) | Synergy Score LS-411N (LS-411N) | Synergy Score SW480 (SW480) | Synergy Score SNU-C2B (SNU-C2B) | Synergy Score DLD-1 (DLD-1) | Synergy Score HCT-116 (HCT 116) |
| --- | --- | --- | --- | --- | --- | --- | --- | --- | --- | --- |
| O=C(/C=C/c1cccc(S(=O)(=O)Nc2ccccc2)c1)NO [Belinostat] | 4.5 | 10.2 | 16.4 | 8.6 | 4.1 | – | – | – | – | – |
| CC[C@H](NC(=O)[C@H](C)NC)C(=O)N1C[C@@H](O)C[C@H]1Cc1c(-c2[nH]c3cc(F)ccc3c2C[C@@H]2C[C@H](O)CN2C(=O)[C@H](CC)NC(=O)[C@H](C)NC)[nH]c2cc(F)ccc12 [Birinapant, reference compound] | 61.2 | 54.5 | 37 | 5.8 | 16.4 | – | – | – | – | – |
| C[C@@H]1CCN(C(=O)CC#N)C[C@@H]1N(C)c1ncnc2[nH]ccc12 [CP-690550] | 0.6 | 0 | 0.1 | 0.1 | 0 | – | – | – | – | – |
| N.N.O=C([O-])C1(C(=O)[O-])CCC1.[Pt+2] [Carboplatin] | 12 | 19.5 | 11.6 | 11.3 | 5.8 | – | – | – | – | – |
| N.N.[Cl][Pt][Cl] [Cisplatin] | 15.4 | 18.9 | 12.9 | 8.8 | 6.7 | – | – | – | – | – |
| CC1=C(C(=O)Nc2cc3cn[nH]c3cc2F)C(c2ccc(C(F)(F)F)cc2)CC(=O)N1 (stereo not shown) [Compound G5K429286A] | 9.8 | 5.3 | 5.3 | 4.9 | 2.6 | – | – | – | – | – |
| CC(C)(C)c1nc(-c2cccc(NS(=O)(=O)c3c(F)cccc3F)c2F)c(-c2ccnc(N)n2)s1 [Dabrafenib] | 0.5 | 3.1 | 0.5 | 2.2 | 0.7 | – | – | – | – | – |
| C[C@@H]1C[C@H]2[C@@H]3CCC4=CC(=O)C=C[C@]4(C)[C@@]3(F)[C@@H](O)C[C@]2(C)[C@@]1(O)C(=O)CO [Dexamethasone] | 0.4 | 0 | 0.8 | 0.1 | 0 | – | – | – | – | – |
| COc1cccc2c1C(=O)c1c(O)c3c(c(O)c1C2=O)C[C@@](O)(C(=O)CO)C[C@@H]3O[C@H]1C[C@H](N)[C@H](O)[C@H](C)O1 [Doxorubicin] | 9.4 | 20.5 | 18 | 16.2 | 4.6 | – | – | – | – | – |
| Cn1cc(C2=C(c3cn(C4CCN(Cc5ccccn5)CC4)c4ccccc34)C(=O)NC2=O)c2ccccc21 [Enzastaurin] | 5.6 | 6.3 | 0.5 | 0.9 | 0.6 | – | – | – | – | – |
| COc1cccc2c1C(=O)c1c(O)c3c(c(O)c1C2=O)C[C@@](O)(C(=O)CO)C[C@@H]3O[C@H]1C[C@H](N)[C@@H](O)[C@H](C)O1 [Epirubicin] | 5.8 | 17.7 | 15.1 | 15.6 | 4.9 | – | – | – | – | – |
| CO[C@H]1C[C@@H]2CC[C@@H](C)[C@@](O)(O2)C(=O)C(=O)N2CCCC[C@H]2C(=O)O[C@H]([C@H](C)C[C@@H]2CC[C@@H](OCCO)[C@H](OC)C2)CC(=O)[C@H](C)/C=C(\C)[C@@H](O)[C@@H](OC)C(=O)[C@H](C)C[C@H](C)/C=C/C=C/C=C/1C [Everolimus] | 0.3 | 1.6 | 3.2 | 0.4 | 0.4 | – | – | – | – | – |
| CS(=O)(=O)c1ccc(C(=O)Nc2ccc(Cl)c(-c3ccccn3)c2)c(Cl)c1 [GDC-0449] | 0.2 | 0.1 | 0.3 | 0.1 | 0 | – | – | – | – | – |
| OCCn1cc(-c2ccc3c(c2)CC/C3=N\O)c(-c2ccncc2)n1 [GDC-0879] | 0.4 | 1.6 | 0.7 | 0.1 | 0.2 | – | – | – | – | – |
| CS(=O)(=O)N1CCN(Cc2cc3nc(-c4cccc5[nH]ncc45)nc(N4CCOCC4)c3s2)CC1 [GDC-0941] | 12.4 | 12.9 | 7.1 | 4.9 | 2 | – | – | – | – | – |
| CN(C)CCCn1cc(C2=C(c3c[nH]c4ccccc34)C(=O)NC2=O)c2ccccc21 [GF 109203X] | – | – | – | – | – | 5.3 | 6.2 | 1.6 | 4.3 | 3 |

| Structure (SMILES) | Synergy Score LS-411N (LS-411N; [1]) | Synergy Score SW480 (SW480; [2]) | Synergy Score SNU-C2B (SNU-C2B; [3]) | Synergy Score DLD-1 (DLD-1; [4]) | Synergy Score HCT-116 (HCT 116; [5]) | Synergy Score LS-411N (LS-411N) | Synergy Score SW480 (SW480) | Synergy Score SNU-C2B (SNU-C2B) | Synergy Score DLD-1 (DLD-1) | Synergy Score HCT-116 (HCT 116) |
| --- | --- | --- | --- | --- | --- | --- | --- | --- | --- | --- |
| O=C1NC(=O)/C(=C/c2ccc3nccc(-c4ccncc4)c3c2)S1 [GSK1059615] | 0.4 | 1.7 | 0.8 | 0.4 | 0.6 | – | – | – | – | – |
| CCc1cc(Nc2nccc(-c3c(-c4ccc(OC)c(C(=O)Nc5c(F)cccc5F)c4)nc4ccccn34)n2)c(OC)cc1N1CCC(N2CCN(S(C)(=O)=O)CC2)CC1 [GSK1904529A] | 6 | 2.2 | 2.7 | 1.4 | 0.2 | – | – | – | – | – |
| Nc1ccn([C@@H]2O[C@H](CO)[C@@H](O)C2(F)F)c(=O)n1 [Gemcitabine] | 5.7 | 31.1 | 18.5 | 20.3 | 12.2 | – | – | – | – | – |
| Cn1c2ccccc2c2c3c(c4c5ccccc5n(CCC#N)c4c21)CNC3=O [Go 6976] | 1.9 | 3.1 | 1.7 | 2.9 | 0.9 | – | – | – | – | – |
| CNC(=O)c1ccc(-c2cnc3ncc(Cc4ccc5ncccc5c4)n3n2)cc1F [INCB28060] | 0 | 0 | 0.4 | 0.2 | 0.1 | – | – | – | – | – |
| C[C@H](Nc1ncnc2nc[nH]c12)c1cc2cccc(Cl)c2c(=O)n1-c1ccccc1 [IPI-145] | 0.2 | 0.1 | 1 | 0 | 0 | – | – | – | – | – |
| COc1cc(C(=O)O)ccc1NC(=O)[C@@H]1N[C@@H](CC(C)(C)C)[C@](C#N)(c2ccc(Cl)cc2F)[C@H]1c1cccc(Cl)c1F [Idasanutlin] | 16.3 | 6.1 | 10.4 | 6.3 | 3.2 | – | – | – | – | – |
| Cn1cc(-c2ccc3nnc(C(F)(F)c4ccc5ncccc5c4)n3n2)cn1 [JNJ-38877605] | 0.1 | 0 | 0.1 | 0.1 | 0 | – | – | – | – | – |
| Cc1cc(NC(=O)c2cccc(NC(=O)/C=C/CN(C)C)c2)ccc1Nc1nccc(-c2cccnc2)n1 [JNK-IN-8] | 0.1 | 0.4 | 1.1 | 0.2 | 0 | – | – | – | – | – |
| Nc1cccc2c1CN(C1CCC(=O)NC1=O)C2=O (stereo not shown) [Lenalidomide] | 0.1 | 0 | 0.2 | 0 | 0 | – | – | – | – | – |
| COCCNCc1ccc(-c2cc3nccc(Oc4ccc(NC(=S)NC(=O)Cc5ccc(F)cc5)cc4F)c3s2)nc1 [MGCD-265] | 0.7 | 0.5 | 3.1 | 0.2 | 0.1 | – | – | – | – | – |
| Cc1ccc(NC(=O)c2ccc(CN3CCN(C)CC3)cc2)cc1Nc1nc(-c2cccnc2)cs1 [Masitinib] | 1.4 | 1.9 | 1.7 | 0.6 | 0.3 | – | – | – | – | – |
| C[C@H]1C[C@@H]2[C@H]([C@@H](O)C[C@@]3(C)[C@H]2CC[C@]3(O)C(=O)CO)[C@@]2(C)C=CC(=O)C=C12 [Methylprednisolone] | 0 | 0 | 0.6 | 0 | 0 | – | – | – | – | – |
| C[C@]1(O)C[C@@H](c2nc(-c3ccc4ccc(-c5ccccc5)nc4c3)c3c(N)nccn32)C1 [OSI-906] | 1.7 | 3.5 | 1 | 0.5 | 0.1 | – | – | – | – | – |
| COC1=CC(c2cc3ccccc3[nH]2)=N/C1=C\c1[nH]c(C)cc1C [Obatoclax] | 22.8 | 11.8 | 4.7 | 6.1 | 1.6 | – | – | – | – | – |
| O=C(c1cc(Cc2n[nH]c(=O)c3ccccc23)ccc1F)N1CCN(C(=O)C2CC2)CC1 [Olaparib] | 2.7 | 1 | 2.5 | 0.7 | 1.8 | – | – | – | – | – |
